Laboratory results from patent US11111251B2, “Positive allosteric modulators of the muscarinic acetylcholine receptor M1” (Vanderbilt University, priority 2016, dated 2021).

Biological target: T1, human mAChR M1 (Homo sapiens, UniProt P11229)
T1 sequence (P11229 1-460): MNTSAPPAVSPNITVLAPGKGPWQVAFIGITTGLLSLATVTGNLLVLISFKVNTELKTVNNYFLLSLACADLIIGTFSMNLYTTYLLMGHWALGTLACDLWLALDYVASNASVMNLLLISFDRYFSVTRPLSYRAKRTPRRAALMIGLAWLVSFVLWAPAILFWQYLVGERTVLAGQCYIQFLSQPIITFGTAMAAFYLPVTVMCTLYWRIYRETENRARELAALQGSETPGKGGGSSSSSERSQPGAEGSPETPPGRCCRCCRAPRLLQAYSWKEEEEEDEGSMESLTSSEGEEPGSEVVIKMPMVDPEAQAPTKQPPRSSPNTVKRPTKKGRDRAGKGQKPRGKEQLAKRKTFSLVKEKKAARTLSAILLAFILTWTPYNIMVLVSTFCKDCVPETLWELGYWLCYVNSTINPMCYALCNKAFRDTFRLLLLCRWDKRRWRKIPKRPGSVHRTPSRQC
Experiment: mAChR M1 cell-based functional assay: calcium mobilization, positive allosteric modulator mode (increase in EC20 acetylcholine response)
Details: Table 2, human M1; for EC50: read-out: Human M1 EC50; for Emax: read-out: Human M1 Emax (%)
Procedure, shortened: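 PAM potency reflects the concentration-dependent increase in calcium response to an EC20 acetylcholine challenge, given 144 s into a 300 s read after compound addition at 4 s (EC80 follows at 230 s). Cells were hM1-expressing CHO-K1, loaded 50 min with Fluo-4 AM. Curves used 11 points at 1:3 dilutions and four-parameter logistic fitting.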

Row | Compound | EC50 [nM] | Emax [%]
1 | Cc1nc(-c2ccc(Cc3cc(C(=O)NC4CCCCNC4=O)nc4ccsc34)cc2)co1 (stereo not shown) [Compound 172, 7-[[4-(2-methyloxazol-4-yl)phenyl]methyl]-N-(2-oxoazepan-3-yl)thieno[3,2-b]pyridine-5-carboxamide] | 685 | 88.8
2 | Cc1nc(-c2ccc(Cc3cc(C(=O)N4CCC[C@@H](O)C4)nc4ccsc34)cc2)co1 [Compound 173, [(3R)-3-hydroxy-1-piperidyl]-[7-[[4-(2-methyloxazol-4-yl)phenyl]methyl]thieno[3,2-b]pyridin-5-yl]methanone] | > 10000 | 37
3 | Cn1cc(-c2ccc(Cc3cc(C(=O)NC4CC5(COC5)C4)nc4ccsc34)cc2)nn1 [Compound 175, 7-[[4-(1-methyltriazol-4-yl)phenyl]methyl]-N-(2-oxaspiro[3.3]heptan-6-yl)thieno[3,2-b]pyridine-5-carboxamide] | 17.7 | 84.3
4 | Cc1nc(-c2ccc(Cc3cc(C(=O)NC4(C)COC4)nc4ccsc34)cc2)cs1 [Compound 177, N-(3-methyloxetan-3-yl)-7-[[4-(2-methylthiazol-4-yl)phenyl]methyl]thieno[3,2-b]pyridine-5-carboxamide] | > 10000 | 39.7
5 | Cc1nc(-c2ccc(Cc3cc(C(=O)NC4CC(F)C4)nc4ccsc34)cc2)cs1 (stereo not shown) [Compound 181, N-(3-fluorocyclobutyl)-7-[[4-(2-methylthiazol-4-yl)phenyl]methyl]thieno[3,2-b]pyridine-5-carboxamide] | 3820 | 64
6 | Cc1nc(-c2ccc(Cc3cc(C(=O)N[C@@H]4CCOC4)nc4ccsc34)cc2)cs1 [Compound 183, 7-[[4-(2-methylthiazol-4-yl)phenyl]methyl]-N-[(3R)-tetrahydrofuran-3-yl]thieno[3,2-b]pyridine-5-carboxamide] | 2530 | 67.3
7 | Cc1nc(-c2ccc(Cc3cc(C(=O)NC4CCCCC4)nc4ccsc34)cc2)cs1 [Compound 185, N-cyclohexyl-7-[[4-(2-methylthiazol-4-yl)phenyl]methyl]thieno[3,2-b]pyridine-5-carboxamide] | 4230 | 52.1
8 | Cc1nc(-c2ccc(Cc3cc(C(=O)NC4CCCN(C)C4)nc4ccsc34)cc2)cs1 (stereo not shown) [Compound 186, N-(1-methyl-3-piperidyl)-7-[[4-(2-methylthiazol-4-yl)phenyl]methyl]thieno[3,2-b]pyridine-5-carboxamide] | 3290 | 74.2
9 | Cc1nc(-c2ccc(Cc3cc(C(=O)N(C)C4CCOCC4)nc4ccsc34)cc2)cs1 [Compound 190] | 6140 | 75.5
10 | Cc1nc(-c2ccc(Cc3cc(C(=O)N[C@H]4CCOC[C@@H]4O)nc4ccsc34)cc2)cs1 [Compound 192, N-[(3R,4S)-3-hydroxytetrahydropyran-4-yl]-7-[[4-(2-methylthiazol-4-yl)phenyl]methyl]thieno[3,2-b]pyridine-5-carboxamide] | 15.3 | 78.7
11 | Cc1nc(-c2ccc(Cc3cc(C(=O)N[C@H]4COCC[C@@H]4O)nc4ccsc34)cc2)cs1 [Compound 193, N-[(3S,4S)-4-hydroxytetrahydropyran-3-yl]-7-[[4-(2-methylthiazol-4-yl)phenyl]methyl]thieno[3,2-b]pyridine-5-carboxamide] | 31.1 | 85.7
12 | Cc1nc(-c2ccc(Cc3cc(C(=O)N[C@H]4CCCC[C@@H]4O)nc4ccsc34)cc2)cs1 [Compound 194, N-[(1S,2S)-2-hydroxycyclohexyl]-7-[[4-(2-methylthiazol-4-yl)phenyl]methyl]thieno[3,2-b]pyridine-5-carboxamide] | 59.6 | 80.7
13 | CO[C@H]1CCCC[C@@H]1NC(=O)c1cc(Cc2ccc(-c3csc(C)n3)cc2)c2sccc2n1 [Compound 195, N-[(1S,2S)-2-methoxycyclohexyl]-7-[[4-(2-methylthiazol-4-yl)phenyl]methyl]thieno[3,2-b]pyridine-5-carboxamide] | 2390 | 81.8
14 | Cc1nc(-c2ccc(Cc3cc(C(=O)N[C@H]4CCCCC[C@@H]4O)nc4ccsc34)cc2)cs1 [Compound 196, N-[(1S,2S)-2-hydroxycycloheptyl]-7-[[4-(2-methylthiazol-4-yl)phenyl]methyl]thieno[3,2-b]pyridine-5-carboxamide] | 234 | 81.3
15 | Cc1nc(-c2ccc(Cc3cc(C(=O)NC4CCN5CCCC45)nc4ccsc34)cc2)cs1 (stereo not shown) [Compound 197, N-(hexahydro-1H-pyrrolizin-1-yl)-7-[[4-(2-methylthiazol-4-yl)phenyl]methyl]thieno[3,2-b]pyridine-5-carboxamide] | 1380 | 80.8
16 | Cc1nc(-c2ccc(Cc3cc(C(=O)NC4CCCNC4=O)nc4ccsc34)cc2)cs1 (stereo not shown) [Compound 198, 7-[[4-(2-methylthiazol-4-yl)phenyl]methyl]-N-(2-oxo-3-piperidyl)thieno[3,2-b]pyridine-5-carboxamide] | 484 | 90

Further lines, results first:

Row | EC50 [nM] | Emax [%] | Compound
17 | 150 | 82.9 | Cc1nc(-c2ccc(Cc3cc(C(=O)N[C@@H]4CCCCC[C@H]4O)nc4ccsc34)cc2)co1 [Compound 170, N-[(1R,2R)-2-hydroxycycloheptyl]-7-[[4-(2-methyloxazol-4-yl)phenyl]methyl]thieno[3,2-b]pyridine-5-carboxamide]
18 | 373 | 93 | Cc1nc(-c2ccc(Cc3cc(C(=O)NC4CCCNC4=O)nc4ccsc34)cc2)co1 (stereo not shown) [Compound 171, 7-[[4-(2-methyloxazol-4-yl)phenyl]methyl]-N-(2-oxo-3-piperidyl)thieno[3,2-b]pyridine-5-carboxamide]
19 | > 10000 | 45.1 | Cc1nc(-c2ccc(Cc3cc(C(=O)N4CCC(C)(O)CC4)nc4ccsc34)cc2)co1 [Compound 174, (4-hydroxy-4-methyl-1-piperidyl)-[7-[[4-(2-methyloxazol-4-yl)phenyl]methyl]thieno[3,2-b]pyridin-5-yl]methanone]
20 | 362 | 93.2 | Cc1nc(-c2ccc(Cc3cc(C(=O)N[C@@H]4CC[C@H]4O)nc4ccsc34)cc2)cs1 [Compound 176, N-[(1R,2R)-2-hydroxycyclobutyl]-7-[[4-(2-methylthiazol-4-yl)phenyl]methyl]thieno[3,2-b]pyridine-5-carboxamide]
21 | 652 | 86 | Cc1nc(-c2ccc(Cc3cc(C(=O)NC4CC5(COC5)C4)nc4ccsc34)cc2)cs1 [Compound 178, 7-[[4-(2-methylthiazol-4-yl)phenyl]methyl]-N-(2-oxaspiro[3.3]heptan-6-yl)thieno[3,2-b]pyridine-5-carboxamide]
22 | 3800 | 65.2 | Cc1nc(-c2ccc(Cc3cc(C(=O)NC4CN(C(C)(C)C)C4)nc4ccsc34)cc2)cs1 [Compound 179, N-(1-tert-butylazetidin-3-yl)-7-[[4-(2-methylthiazol-4-yl)phenyl]methyl]thieno[3,2-b]pyridine-5-carboxamide]
23 | 3300 | 72.1 | COC1CC(NC(=O)c2cc(Cc3ccc(-c4csc(C)n4)cc3)c3sccc3n2)C1 (stereo not shown) [Compound 180, N-(3-methoxycyclobutyl)-7-[[4-(2-methylthiazol-4-yl)phenyl]methyl]thieno[3,2-b]pyridine-5-carboxamide]
24 | 183 | 84 | Cc1nc(-c2ccc(Cc3cc(C(=O)N[C@@H]4CCC[C@H]4O)nc4ccsc34)cc2)cs1 [Compound 182, N-[(1R,2R)-2-hydroxycyclopentyl]-7-[[4-(2-methylthiazol-4-yl)phenyl]methyl]thieno[3,2-b]pyridine-5-carboxamide]
25 | 3610 | 68.5 | Cc1nc(-c2ccc(Cc3cc(C(=O)N[C@H]4CCOC4)nc4ccsc34)cc2)cs1 [Compound 184, 7-[[4-(2-methylthiazol-4-yl)phenyl]methyl]-N-[(3S)-tetrahydrofuran-3-yl]thieno[3,2-b]pyridine-5-carboxamide]
26 | 3200 | 72.1 | Cc1nc(-c2ccc(Cc3cc(C(=O)NC4CCN(C)CC4)nc4ccsc34)cc2)cs1 [Compound 187, N-(1-methyl-4-piperidyl)-7-[[4-(2-methylthiazol-4-yl)phenyl]methyl]thieno[3,2-b]pyridine-5-carboxamide]
27 | 1790 | 83.2 | Cc1nc(-c2ccc(Cc3cc(C(=O)N[C@@H]4CCCOC4)nc4ccsc34)cc2)cs1 [Compound 188, 7-[[4-(2-methylthiazol-4-yl)phenyl]methyl]-N-[(3R)-tetrahydropyran-3-yl]thieno[3,2-b]pyridine-5-carboxamide]
28 | 6270 | 72 | Cc1nc(-c2ccc(Cc3cc(C(=O)N[C@H]4CCCOC4)nc4ccsc34)cc2)cs1 [Compound 189, 7-[[4-(2-methylthiazol-4-yl)phenyl]methyl]-N-[(3S)-tetrahydropyran-3-yl]thieno[3,2-b]pyridine-5-carboxamide]
29 | 247 | 86.9 | Cc1nc(-c2ccc(Cc3cc(C(=O)NC4CCOCC4)nc4ccsc34)cc2)cs1 [Compound 191, 7-[[4-(2-methylthiazol-4-yl)phenyl]methyl]-N-tetrahydropyran-4-yl-thieno[3,2-b]pyridine-5-carboxamide]
